Assay: Clinical safety, Study ALZ1005
Assay type: in vivo, human
Settings: for patients with one or more TEAEs: Caucasian early AD; for Subjects with any TEAE / TEAE: Accidental overdose / TEAE: Anxiety / TEAE: Bladder cancer / TEAE: Conjunctivitis / TEAE: Dementia Alzheimer’s type / TEAE: Depressed mood / TEAE: Dermatitis allergic / TEAE: Dizziness / TEAE: Eczema vesicular / TEAE: Fatigue / TEAE: Gastrointestinal disorders / TEAE: General disorders and administration site conditions / TEAE: Headache / TEAE: Hypertension / TEAE: Infections and infestations / TEAE: Injury, poisoning and procedural complications / TEAE: Insomnia / TEAE: Irritability / TEAE: Musculoskeletal and connective tissue disorders / TEAE: Nasopharyngitis / TEAE: Nausea / TEAE: Neck pain / TEAE: Neoplasms benign, malignant and unspecified / TEAE: Nervous system disorders / TEAE: Post lumbar puncture syndrome / TEAE: Psoriasis / TEAE: Psychiatric disorders / TEAE: Renal and urinary disorders / TEAE: Renal colic / TEAE: Reproductive system and breast disorders / TEAE: Skin and subcutaneous tissue disorders / TEAE: Somnolence / TEAE: Syncope / TEAE: Urticaria / TEAE: Vascular disorders / TEAE: Vulvovaginal candidiasis / TEAE: Vulvovaginal pruritus: MCI due to AD
Description: Safety and tolerability were assessed during the study by recording adverse events (AEs), clinically significant abnormalities, clinical laboratory tests, ECG, and vital signs and by performing physical, neurological, and MRI examinations. All enrolled participants were included in the safety analysis population.

SMILES: C[C@@]1(c2cc(NC(=O)c3ccc(C#N)cn3)ccc2F)C=CSC(N)=N1 [atabecestat]
- relevant abnormal neurological finding (10 mg, one participant, day 28): mild ataxia
- events considered possibly related to the study drug (50-mg group): urticaria (n = 1)
- events considered probably related to the study drug (50-mg group): nausea (n = 1), dementia of Alzheimer’s type (n = 1), headache (n = 1)
- tolerability (Caucasian and Japanese, 10 and 50 mg, 4 weeks): well tolerated
- patients with one or more TEAEs (10-mg group, 3 of 15 patients): 20.0%
- patients with one or more TEAEs (50-mg group, 8 of 16 patients): 50.0%
- participants with no microhemosiderin deposits in the brain on MRI at end of treatment (Caucasian, atabecestat groups, 80.6% at baseline): 90.3%
- Subjects with any TEAE (10 mg, N=10): ^2 (20.0) n (%)
- TEAE: Accidental overdose (10 mg, N=10): ^1 (10.^0) n (%)
- TEAE: Anxiety (10 mg, N=10): ^0 n (%)
- TEAE: Bladder cancer (10 mg, N=10): ^0 n (%)
- TEAE: Conjunctivitis (10 mg, N=10): ^0 n (%)
- TEAE: Dementia Alzheimer’s type (10 mg, N=10): ^0 n (%)
- TEAE: Depressed mood (10 mg, N=10): ^0 n (%)
- TEAE: Dermatitis allergic (10 mg, N=10): ^0 n (%)
- TEAE: Dizziness (10 mg, N=10): ^0 n (%)
- TEAE: Eczema vesicular (10 mg, N=10): ^0 n (%)
- TEAE: Fatigue (10 mg, N=10): ^0 n (%)
- TEAE: Gastrointestinal disorders (10 mg, N=10): ^0 n (%)
- TEAE: General disorders and administration site conditions (10 mg, N=10): ^0 n (%)
- TEAE: Headache (10 mg, N=10): ^0 n (%)
- TEAE: Hypertension (10 mg, N=10): ^0 n (%)
- TEAE: Infections and infestations (10 mg, N=10): ^0 n (%)
- TEAE: Injury, poisoning and procedural complications (10 mg, N=10): ^2 (20.0) n (%)
- TEAE: Insomnia (10 mg, N=10): ^0 n (%)
- TEAE: Irritability (10 mg, N=10): ^0 n (%)
- TEAE: Musculoskeletal and connective tissue disorders (10 mg, N=10): ^0 n (%)
- TEAE: Nasopharyngitis (10 mg, N=10): ^0 n (%)
- TEAE: Nausea (10 mg, N=10): ^0 n (%)
- TEAE: Neck pain (10 mg, N=10): ^0 n (%)
- TEAE: Neoplasms benign, malignant and unspecified (10 mg, N=10): ^0 n (%)
- TEAE: Nervous system disorders (10 mg, N=10): ^0 n (%)
- TEAE: Post lumbar puncture syndrome (10 mg, N=10): ^2 (20.^0) n (%)
- TEAE: Psoriasis (10 mg, N=10): ^0 n (%)
- TEAE: Psychiatric disorders (10 mg, N=10): ^0 n (%)
- TEAE: Renal and urinary disorders (10 mg, N=10): ^0 n (%)
- TEAE: Renal colic (10 mg, N=10): ^0 n (%)
- TEAE: Reproductive system and breast disorders (10 mg, N=10): ^0 n (%)
- TEAE: Skin and subcutaneous tissue disorders (10 mg, N=10): ^0 n (%)
- TEAE: Somnolence (10 mg, N=10): ^0 n (%)
- TEAE: Syncope (10 mg, N=10): ^0 n (%)
- TEAE: Urticaria (10 mg, N=10): ^0 n (%)
- TEAE: Vascular disorders (10 mg, N=10): ^0 n (%)
- TEAE: Vulvovaginal candidiasis (10 mg, N=10): ^0 n (%)
- TEAE: Vulvovaginal pruritus (10 mg, N=10): ^0 n (%)
- Subjects with any TEAE (50 mg, N=10): ^6 (60.0) n (%)
- TEAE: Accidental overdose (50 mg, N=10): ^1 (10.^0) n (%)
- TEAE: Anxiety (50 mg, N=10): ^1 (10.^0) n (%)
- TEAE: Bladder cancer (50 mg, N=10): ^0 n (%)
- TEAE: Conjunctivitis (50 mg, N=10): ^0 n (%)
- TEAE: Dementia Alzheimer’s type (50 mg, N=10): ^1 (10.^0) n (%)
- TEAE: Depressed mood (50 mg, N=10): ^1 (10.^0) n (%)
- TEAE: Dermatitis allergic (50 mg, N=10): ^1 (10.^0) n (%)
- TEAE: Dizziness (50 mg, N=10): ^0 n (%)
- TEAE: Eczema vesicular (50 mg, N=10): ^1 (10.^0) n (%)
- TEAE: Fatigue (50 mg, N=10): ^0 n (%)
- TEAE: Gastrointestinal disorders (50 mg, N=10): ^1 (10.0) n (%)
- TEAE: General disorders and administration site conditions (50 mg, N=10): ^0 n (%)
- TEAE: Headache (50 mg, N=10): ^1 (10.^0) n (%)
- TEAE: Hypertension (50 mg, N=10): ^0 n (%)
- TEAE: Infections and infestations (50 mg, N=10): ^1 (10.^0) n (%)
- TEAE: Injury, poisoning and procedural complications (50 mg, N=10): ^2 (20.^0) n (%)
- TEAE: Insomnia (50 mg, N=10): ^0 n (%)
- TEAE: Irritability (50 mg, N=10): ^1 (10.^0) n (%)
- TEAE: Musculoskeletal and connective tissue disorders (50 mg, N=10): ^1 (10.^0) n (%)
- TEAE: Nasopharyngitis (50 mg, N=10): ^0 n (%)
- TEAE: Nausea (50 mg, N=10): ^1 (10·^0) n (%)
- TEAE: Neck pain (50 mg, N=10): ^1 (10.^0) n (%)
- TEAE: Neoplasms benign, malignant and unspecified (50 mg, N=10): ^0 n (%)
- TEAE: Nervous system disorders (50 mg, N=10): ^2 (^20^.0) n (%)
- TEAE: Post lumbar puncture syndrome (50 mg, N=10): ^1 (10.^0) n (%)
- TEAE: Psoriasis (50 mg, N=10): ^0 n (%)
- TEAE: Psychiatric disorders (50 mg, N=10): ^2 (^20^.0) n (%)
- TEAE: Renal and urinary disorders (50 mg, N=10): ^1 (10.^0) n (%)
- TEAE: Renal colic (50 mg, N=10): ^1 (10.^0) n (%)
- TEAE: Reproductive system and breast disorders (50 mg, N=10): ^1 (10.^0) n (%)
- TEAE: Skin and subcutaneous tissue disorders (50 mg, N=10): ^2 (^20^.0) n (%)
- TEAE: Somnolence (50 mg, N=10): ^0 n (%)
- TEAE: Syncope (50 mg, N=10): ^0 n (%)
- TEAE: Urticaria (50 mg, N=10): ^0 n (%)
- TEAE: Vascular disorders (50 mg, N=10): ^0 n (%)
- TEAE: Vulvovaginal candidiasis (50 mg, N=10): ^1 (10.^0) n (%)
- TEAE: Vulvovaginal pruritus (50 mg, N=10): ^1 (10.^0) n (%)
- Subjects with any TEAE (JNJ-54861911 total, N=20): ^8 (40.0) n (%)
- TEAE: Accidental overdose (JNJ-54861911 total, N=20): ^2 (10.0) n (%)
- TEAE: Anxiety (JNJ-54861911 total, N=20): ^1 (5.0) n (%)
- TEAE: Bladder cancer (JNJ-54861911 total, N=20): ^0 n (%)
- TEAE: Conjunctivitis (JNJ-54861911 total, N=20): ^0 n (%)
- TEAE: Dementia Alzheimer’s type (JNJ-54861911 total, N=20): ^1 (5.0) n (%)
- TEAE: Depressed mood (JNJ-54861911 total, N=20): ^1 (5.0) n (%)
- TEAE: Dermatitis allergic (JNJ-54861911 total, N=20): ^1 (5.0) n (%)
- TEAE: Dizziness (JNJ-54861911 total, N=20): ^0 n (%)
- TEAE: Eczema vesicular (JNJ-54861911 total, N=20): ^1 (5.0) n (%)
- TEAE: Fatigue (JNJ-54861911 total, N=20): ^0 n (%)
- TEAE: Gastrointestinal disorders (JNJ-54861911 total, N=20): ^1 (5.0) n (%)
- TEAE: General disorders and administration site conditions (JNJ-54861911 total, N=20): ^0 n (%)
- TEAE: Headache (JNJ-54861911 total, N=20): ^1 (5.0) n (%)
- TEAE: Hypertension (JNJ-54861911 total, N=20): ^0 n (%)
- TEAE: Infections and infestations (JNJ-54861911 total, N=20): ^1 (5.0) n (%)
- TEAE: Injury, poisoning and procedural complications (JNJ-54861911 total, N=20): ^4 (20.0) n (%)
- TEAE: Insomnia (JNJ-54861911 total, N=20): ^0 n (%)
- TEAE: Irritability (JNJ-54861911 total, N=20): ^1 (5.0) n (%)
- TEAE: Musculoskeletal and connective tissue disorders (JNJ-54861911 total, N=20): ^1 (5.0) n (%)
- TEAE: Nasopharyngitis (JNJ-54861911 total, N=20): ^0 n (%)
- TEAE: Nausea (JNJ-54861911 total, N=20): ^1 (5.0) n (%)
- TEAE: Neck pain (JNJ-54861911 total, N=20): ^1 (5.0) n (%)
- TEAE: Neoplasms benign, malignant and unspecified (JNJ-54861911 total, N=20): ^0 n (%)
- TEAE: Nervous system disorders (JNJ-54861911 total, N=20): ^2 (10.0) n (%)
- TEAE: Post lumbar puncture syndrome (JNJ-54861911 total, N=20): ^3 (15.0) n (%)
